Columns and labels:
[1] = biological target: T1, JMJD2C (Homo sapiens, UniProt Q9H3R0); assay: JMJD2C in vitro enzyme inhibition assay (TR-FRET); format: biochemical
T1 construct: purchased BPS Bioscience 50105
T1 sequence (Q9H3R0 2-372): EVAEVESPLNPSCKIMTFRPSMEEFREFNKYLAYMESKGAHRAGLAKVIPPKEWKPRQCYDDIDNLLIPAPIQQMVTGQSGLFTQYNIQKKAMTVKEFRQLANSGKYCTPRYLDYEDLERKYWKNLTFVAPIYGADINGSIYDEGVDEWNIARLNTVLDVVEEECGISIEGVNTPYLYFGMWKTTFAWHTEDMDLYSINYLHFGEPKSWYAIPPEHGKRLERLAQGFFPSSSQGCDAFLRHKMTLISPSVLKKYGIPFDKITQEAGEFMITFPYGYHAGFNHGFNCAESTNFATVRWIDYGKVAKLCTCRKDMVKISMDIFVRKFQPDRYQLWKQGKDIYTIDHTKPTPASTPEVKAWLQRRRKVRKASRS
Excerpt: (§1) This assay determines the ability of a test compound to inhibit Jarid1A, Jarid1B, and JMJD2C demethylase activity. Baculovirus expressed Jarid1A (GenBank Accession #NM_001042603, AA1-1090) was purchased from BPS Bioscience (Cat#50110). Baculovirus expressed Jarid1B (GenBank Accession #NM_006618, AA 2-751) was purchased from BPS Bioscience (Cat #50121) or custom made by MolecularThroughput. Baculovirus expressed JMJD2C (GenBank Accession #BC143571, AA 2-372) was purchased from BPS Bioscience (Cat#50105).
The ability of test compounds to inhibit the activity of JMJD2C was determined in 384-well plate format under the following reaction conditions: 0.3 nM JMJD2C, 300 nM H3K9me3-biotin labeled peptide (Anaspec cat #64360), 2 μM alpha-ketoglutaric acid in assay buffer of 50 mM HEPES, pH7.3, 0.005% Brij35, 0.5 mM TCEP, 0.2 mg/ml BSA, 50 μM sodium L-ascorbate, and 2 μM ammonium iron(II) sulfate. Reaction product was determined quantitatively by TR-FRET after the addition of detection reagent Phycolink Streptavidin-allophycocyanin (Prozyme) and Europium-anti-di-methylated histone H3 lysine 9 (H3K9me2) antibody (PerkinElmer) in the presence of 5 mM EDTA in LANCE detection buffer (PerkinElmer) at a final concentration of 50 nM and 1 nM, respectively.
(§2) The assay reaction was initiated by the following: 2 μl of the mixture of 900 nM H3K9me3-biotin labeled peptide and 6 μM alpha-ketoglutaric acid with 2 μl of 11-point serial diluted inhibitor in 3% DMSO were added to each well of the plate, followed by the addition of 2 μl of 0.9 nM JMJD2C to initiate the reaction. The reaction mixture was incubated at room temperature for 30 minutes, and terminated by the addition of 6 μl of 5 mM EDTA in LANCE detection buffer containing 100 nM Phycolink Streptavidin-allophycocyanin and 2 nM Europium-anti-H3K9me2 antibody. Plates were read by EnVisionMultilabel Reader in TR-FRET mode (excitation at 320 nm, emission at 615 nm and 665 nm) after 1 hour incubation at room temperature. A ratio was calculated (665/615) for each well and fitted to determine inhibition constant (IC50).

[2] = biological target: T2, Jarid1B (Homo sapiens, UniProt Q9UGL1); assay: Jarid1B in vitro enzyme inhibition assay (TR-FRET); format: biochemical
T2 construct: purchased BPS Bioscience or custom made by MolecularThroughput 50121
T2 sequence (Q9UGL1 2-751): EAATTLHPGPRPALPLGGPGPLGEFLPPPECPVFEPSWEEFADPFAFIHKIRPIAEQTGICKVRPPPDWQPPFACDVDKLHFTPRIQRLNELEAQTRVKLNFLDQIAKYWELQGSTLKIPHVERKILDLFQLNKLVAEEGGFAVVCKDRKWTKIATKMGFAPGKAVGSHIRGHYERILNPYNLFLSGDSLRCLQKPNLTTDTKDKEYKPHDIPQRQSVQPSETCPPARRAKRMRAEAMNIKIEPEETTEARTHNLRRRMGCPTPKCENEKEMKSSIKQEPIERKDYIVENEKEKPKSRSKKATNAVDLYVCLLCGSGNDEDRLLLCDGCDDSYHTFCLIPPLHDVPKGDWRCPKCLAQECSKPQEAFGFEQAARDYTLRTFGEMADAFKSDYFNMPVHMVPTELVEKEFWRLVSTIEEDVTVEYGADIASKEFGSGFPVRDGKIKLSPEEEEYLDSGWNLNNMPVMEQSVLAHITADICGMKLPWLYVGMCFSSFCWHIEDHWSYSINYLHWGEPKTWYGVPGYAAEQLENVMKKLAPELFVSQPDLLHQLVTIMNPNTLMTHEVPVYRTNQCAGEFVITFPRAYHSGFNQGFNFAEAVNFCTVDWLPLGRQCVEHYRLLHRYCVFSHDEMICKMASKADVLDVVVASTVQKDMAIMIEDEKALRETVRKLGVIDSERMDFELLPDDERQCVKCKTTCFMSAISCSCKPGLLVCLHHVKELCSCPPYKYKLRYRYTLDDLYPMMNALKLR
Excerpt: as §1
The ability of test compounds to inhibit the activity of Jarid1B was determined in 384-well plate format under the following reaction conditions: 0.8 nM Jarid1B, 300 nM H3K4me3-biotin labeled peptide (Anaspec cat #64357), 2 μM alpha-ketoglutaric acid in assay buffer of 50 mM HEPES, pH7.3, 0.005% Brij35, 0.5 mM TCEP, 0.2 mg/ml BSA, 50 μM sodium L-ascorbate, and 2 μM ammonium iron(II) sulfate. Reaction product was determined quantitatively by TR-FRET after the addition of detection reagent Phycolink Streptavidin-allophycocyanin (Prozyme) and Europium-anti-mono-or di-methylated histone H3 lysine 4 (H3K4me1-2) antibody (PerkinElmer) in the presence of 5 mM EDTA in LANCE detection buffer (PerkinElmer) at a final concentration of 25 nM and 1 nM, respectively.
as §2, with “nM H3K4me3-biotin” for “nM H3K9me3-biotin”, “DMSO was” for “DMSO were”, “of 2.4” for “of 0.9”, “nM Jarid1B” for “nM JMJD2C”, “containing 50” for “containing 100”, “nM Europium-anti-H3K4me1-2” for “nM Europium-anti-H3K9me2”

Compound	IC50 [1] [nM]	IC50 [2] [nM]
Cn1cnc(-c2nccc3c(O)nc(OCc4ccc(F)cc4)nc23)c1 [Example 71, 2-[(4-fluorobenzyl)oxy]-8-(1-methyl-1H-imidazol-4-yl)pyrido[3,4-d]pyrimidin-4-ol]	100 to 1000	≤ 100
O=C(c1ccc(F)cc1)N1CCC(n2cc(Oc3nc(O)c4ccncc4n3)cn2)CC1 [Example 93, (4-fluorophenyl)-[4-[4-(4-hydroxypyrido[3,4-d]pyrimidin-2-yl)oxypyrazol-1-yl]piperidin-1-yl]methanone]	≤ 100	≤ 100
Oc1nc(Oc2ccccc2F)nc2cnccc12 [Example 46, 2-(2-fluorophenoxy)pyrido[3,4-d]pyrimidin-4-ol]	100 to 1000	100 to 1000
COCCn1cc(Oc2nc(O)c3ccncc3n2)cn1 [Example 64, 2-{[1-(2-methoxyethyl)-1H-pyrazol-4-yl]oxy}pyrido[3,4-d]pyrimidin-4-ol]	100 to 1000	≤ 100
Cn1cnc(-c2nccc3c(O)nc(OCC(C)(C)O)nc23)c1 [Example 98, 2-(2-hydroxy-2-methylpropoxy)-8-(1-methylimidazol-4-yl)pyrido[3,4-d]pyrimidin-4-ol]	1000 to 10000	100 to 1000
Oc1nc(Oc2cccc(F)c2)nc2cnccc12 [Example 40, 2-(3-fluorophenoxy)pyrido[3,4-d]pyrimidin-4-ol]	≤ 100	≤ 100
Oc1nc(OCC2CC2)nc2cnccc12 [Example 5, 2-(cyclopropylmethoxy)-3H-pyrido[3,4-d]pyrimidin-4-one]	100 to 1000	100 to 1000
CC(C)c1cccc(Oc2nc(O)c3ccncc3n2)c1 [Example 39, 2-(3-propan-2-ylphenoxy)pyrido[3,4-d]pyrimidin-4-ol]	100 to 1000	≤ 100
Oc1nc(Oc2cnn(C3CCNCC3)c2)nc2cnccc12 [Example 89, 2-(1-piperidin-4-ylpyrazol-4-yl)oxypyrido[3,4-d]pyrimidin-4-ol]	≤ 100	≤ 100
CCCn1cc(Oc2nc(O)c3ccncc3n2)cn1 [Example 54, 2-(1-propylpyrazol-4-yl)oxypyrido[3,4-d]pyrimidin-4-ol]	100 to 1000	≤ 100
CCOc1nc(O)c2ccnc(-c3cn(C)cn3)c2n1 [Example 69, 2-ethoxy-8-(1-methyl-1H-imidazol-4-yl)pyrido[3,4-d]pyrimidin-4-ol]	100 to 1000	≤ 100
Cn1cnc(-c2nccc3c(O)nc(OCC4CCOCC4)nc23)c1 [Example 102, 8-(1-methyl-1H-imidazol-4-yl)-2-(oxan-4-ylmethoxy)pyrido[3,4-d]pyrimidin-4-ol]	≤ 100	100 to 1000
Oc1nc(OCc2ccccc2)nc2cnccc12 [Example 4, 2-phenylmethoxypyrido[3,4-d]pyrimidin-4-ol]	100 to 1000	100 to 1000
CCCc1cccc(Oc2nc(O)c3ccncc3n2)c1 [Example 58, 2-(3-propylphenoxy)pyrido[3,4-d]pyrimidin-4-ol]	100 to 1000	≤ 100
COc1c(F)cc(Oc2nc(O)c3ccncc3n2)cc1F [Example 43, 2-(3,5-difluoro-4-methoxyphenoxy)pyrido[3,4-d]pyrimidin-4-ol]	100 to 1000	≤ 100
Cn1cnc(-c2nccc3c(O)nc(Oc4ccc5cnn(C)c5c4)nc23)c1 [Example 83, 8-(1-methylimidazol-4-yl)-2-(1-methylindazol-6-yl)oxypyrido[3,4-d]pyrimidin-4-ol]	100 to 1000	≤ 100
OCCOc1nc(O)c2ccncc2n1 [Example 3, 2-(2-hydroxyethoxy)pyrido[3,4-d]pyrimidin-4-ol]	100 to 1000	100 to 1000
Oc1nc(Oc2cccc(C(F)(F)F)c2)nc2cnccc12 [Example 52, 2-[3-(trifluoromethyl)phenoxy]pyrido[3,4-d]pyrimidin-4-ol]	100 to 1000	≤ 100
Cn1cnc(-c2nccc3c(O)nc(OCC4CC4)nc23)c1 [Example 72, 2-(cyclopropylmethoxy)-8-(1-methylimidazol-4-yl)pyrido[3,4-d]pyrimidin-4-ol]	100 to 1000	≤ 100
Oc1nc(OCC(F)(F)F)nc2cnccc12 [Example 12, 2-(2,2,2-trifluoroethoxy)pyrido[3,4-d]pyrimidin-4-ol]	100 to 1000	100 to 1000
Oc1nc(Oc2cnn(Cc3ccc(F)cc3)c2)nc2cnccc12 [Example 86, 2-[1-(4-fluorobenzyl)pyrazol-4-yl]oxypyrido[3,4-d]pyrimidin-4-ol]	≤ 100	≤ 100
Oc1nc(Oc2cnn(Cc3ccccc3)c2)nc2cnccc12 [Example 66, 2-[(1-benzyl-1H-pyrazol-4-yl)oxy]pyrido[3,4-d]pyrimidin-4-ol]	≤ 100	≤ 100
Cn1cnc(-c2nccc3c(O)nc(OCC(F)F)nc23)c1 [Example 77, 2-(2,2-difluoroethoxy)-8-(1-methylimidazol-4-yl)pyrido[3,4-d]pyrimidin-4-ol]	100 to 1000	≤ 100
COCCOc1ccc(Oc2nc(O)c3ccnc(-c4cn(C)cn4)c3n2)cc1 [Example 82, 2-[4-(2-methoxyethoxy)phenoxy]-8-(1-methylimidazol-4-yl)pyrido[3,4-d]pyrimidin-4-ol]	100 to 1000	≤ 100
Oc1nc(OC2CCCC2)nc2cnccc12 [Example 6, 2-cyclopentyloxy-3H-pyrido[3,4-d]pyrimidin-4-one]	100 to 1000	100 to 1000
Cn1cnc(-c2nccc3c(O)nc(OCCC4CC4)nc23)c1 [Example 78, 2-(2-cyclopropylethoxy)-8-(1-methylimidazol-4-yl)pyrido[3,4-d]pyrimidin-4-ol]	100 to 1000	≤ 100

Source: patent publication US10526327B2, “Histone demethylase inhibitors” (CELGENE QUANTICEL RESEARCH, INC., priority 2013, dated 2020)
